{"source": "BindingDB's records for doi:10.1021/jm051030l", "about": "(University of Pittsburgh, 2006)", "note": "pIC50: −log10 of the molar value. Structures can show the parent of a compound that is named as a salt."}
{"target": "Cytoplasmic dynein 1 heavy chain 1 (Rattus norvegicus, UniProt P38650)", "sequence (P38650 whole entry, the tested form may be a part)": "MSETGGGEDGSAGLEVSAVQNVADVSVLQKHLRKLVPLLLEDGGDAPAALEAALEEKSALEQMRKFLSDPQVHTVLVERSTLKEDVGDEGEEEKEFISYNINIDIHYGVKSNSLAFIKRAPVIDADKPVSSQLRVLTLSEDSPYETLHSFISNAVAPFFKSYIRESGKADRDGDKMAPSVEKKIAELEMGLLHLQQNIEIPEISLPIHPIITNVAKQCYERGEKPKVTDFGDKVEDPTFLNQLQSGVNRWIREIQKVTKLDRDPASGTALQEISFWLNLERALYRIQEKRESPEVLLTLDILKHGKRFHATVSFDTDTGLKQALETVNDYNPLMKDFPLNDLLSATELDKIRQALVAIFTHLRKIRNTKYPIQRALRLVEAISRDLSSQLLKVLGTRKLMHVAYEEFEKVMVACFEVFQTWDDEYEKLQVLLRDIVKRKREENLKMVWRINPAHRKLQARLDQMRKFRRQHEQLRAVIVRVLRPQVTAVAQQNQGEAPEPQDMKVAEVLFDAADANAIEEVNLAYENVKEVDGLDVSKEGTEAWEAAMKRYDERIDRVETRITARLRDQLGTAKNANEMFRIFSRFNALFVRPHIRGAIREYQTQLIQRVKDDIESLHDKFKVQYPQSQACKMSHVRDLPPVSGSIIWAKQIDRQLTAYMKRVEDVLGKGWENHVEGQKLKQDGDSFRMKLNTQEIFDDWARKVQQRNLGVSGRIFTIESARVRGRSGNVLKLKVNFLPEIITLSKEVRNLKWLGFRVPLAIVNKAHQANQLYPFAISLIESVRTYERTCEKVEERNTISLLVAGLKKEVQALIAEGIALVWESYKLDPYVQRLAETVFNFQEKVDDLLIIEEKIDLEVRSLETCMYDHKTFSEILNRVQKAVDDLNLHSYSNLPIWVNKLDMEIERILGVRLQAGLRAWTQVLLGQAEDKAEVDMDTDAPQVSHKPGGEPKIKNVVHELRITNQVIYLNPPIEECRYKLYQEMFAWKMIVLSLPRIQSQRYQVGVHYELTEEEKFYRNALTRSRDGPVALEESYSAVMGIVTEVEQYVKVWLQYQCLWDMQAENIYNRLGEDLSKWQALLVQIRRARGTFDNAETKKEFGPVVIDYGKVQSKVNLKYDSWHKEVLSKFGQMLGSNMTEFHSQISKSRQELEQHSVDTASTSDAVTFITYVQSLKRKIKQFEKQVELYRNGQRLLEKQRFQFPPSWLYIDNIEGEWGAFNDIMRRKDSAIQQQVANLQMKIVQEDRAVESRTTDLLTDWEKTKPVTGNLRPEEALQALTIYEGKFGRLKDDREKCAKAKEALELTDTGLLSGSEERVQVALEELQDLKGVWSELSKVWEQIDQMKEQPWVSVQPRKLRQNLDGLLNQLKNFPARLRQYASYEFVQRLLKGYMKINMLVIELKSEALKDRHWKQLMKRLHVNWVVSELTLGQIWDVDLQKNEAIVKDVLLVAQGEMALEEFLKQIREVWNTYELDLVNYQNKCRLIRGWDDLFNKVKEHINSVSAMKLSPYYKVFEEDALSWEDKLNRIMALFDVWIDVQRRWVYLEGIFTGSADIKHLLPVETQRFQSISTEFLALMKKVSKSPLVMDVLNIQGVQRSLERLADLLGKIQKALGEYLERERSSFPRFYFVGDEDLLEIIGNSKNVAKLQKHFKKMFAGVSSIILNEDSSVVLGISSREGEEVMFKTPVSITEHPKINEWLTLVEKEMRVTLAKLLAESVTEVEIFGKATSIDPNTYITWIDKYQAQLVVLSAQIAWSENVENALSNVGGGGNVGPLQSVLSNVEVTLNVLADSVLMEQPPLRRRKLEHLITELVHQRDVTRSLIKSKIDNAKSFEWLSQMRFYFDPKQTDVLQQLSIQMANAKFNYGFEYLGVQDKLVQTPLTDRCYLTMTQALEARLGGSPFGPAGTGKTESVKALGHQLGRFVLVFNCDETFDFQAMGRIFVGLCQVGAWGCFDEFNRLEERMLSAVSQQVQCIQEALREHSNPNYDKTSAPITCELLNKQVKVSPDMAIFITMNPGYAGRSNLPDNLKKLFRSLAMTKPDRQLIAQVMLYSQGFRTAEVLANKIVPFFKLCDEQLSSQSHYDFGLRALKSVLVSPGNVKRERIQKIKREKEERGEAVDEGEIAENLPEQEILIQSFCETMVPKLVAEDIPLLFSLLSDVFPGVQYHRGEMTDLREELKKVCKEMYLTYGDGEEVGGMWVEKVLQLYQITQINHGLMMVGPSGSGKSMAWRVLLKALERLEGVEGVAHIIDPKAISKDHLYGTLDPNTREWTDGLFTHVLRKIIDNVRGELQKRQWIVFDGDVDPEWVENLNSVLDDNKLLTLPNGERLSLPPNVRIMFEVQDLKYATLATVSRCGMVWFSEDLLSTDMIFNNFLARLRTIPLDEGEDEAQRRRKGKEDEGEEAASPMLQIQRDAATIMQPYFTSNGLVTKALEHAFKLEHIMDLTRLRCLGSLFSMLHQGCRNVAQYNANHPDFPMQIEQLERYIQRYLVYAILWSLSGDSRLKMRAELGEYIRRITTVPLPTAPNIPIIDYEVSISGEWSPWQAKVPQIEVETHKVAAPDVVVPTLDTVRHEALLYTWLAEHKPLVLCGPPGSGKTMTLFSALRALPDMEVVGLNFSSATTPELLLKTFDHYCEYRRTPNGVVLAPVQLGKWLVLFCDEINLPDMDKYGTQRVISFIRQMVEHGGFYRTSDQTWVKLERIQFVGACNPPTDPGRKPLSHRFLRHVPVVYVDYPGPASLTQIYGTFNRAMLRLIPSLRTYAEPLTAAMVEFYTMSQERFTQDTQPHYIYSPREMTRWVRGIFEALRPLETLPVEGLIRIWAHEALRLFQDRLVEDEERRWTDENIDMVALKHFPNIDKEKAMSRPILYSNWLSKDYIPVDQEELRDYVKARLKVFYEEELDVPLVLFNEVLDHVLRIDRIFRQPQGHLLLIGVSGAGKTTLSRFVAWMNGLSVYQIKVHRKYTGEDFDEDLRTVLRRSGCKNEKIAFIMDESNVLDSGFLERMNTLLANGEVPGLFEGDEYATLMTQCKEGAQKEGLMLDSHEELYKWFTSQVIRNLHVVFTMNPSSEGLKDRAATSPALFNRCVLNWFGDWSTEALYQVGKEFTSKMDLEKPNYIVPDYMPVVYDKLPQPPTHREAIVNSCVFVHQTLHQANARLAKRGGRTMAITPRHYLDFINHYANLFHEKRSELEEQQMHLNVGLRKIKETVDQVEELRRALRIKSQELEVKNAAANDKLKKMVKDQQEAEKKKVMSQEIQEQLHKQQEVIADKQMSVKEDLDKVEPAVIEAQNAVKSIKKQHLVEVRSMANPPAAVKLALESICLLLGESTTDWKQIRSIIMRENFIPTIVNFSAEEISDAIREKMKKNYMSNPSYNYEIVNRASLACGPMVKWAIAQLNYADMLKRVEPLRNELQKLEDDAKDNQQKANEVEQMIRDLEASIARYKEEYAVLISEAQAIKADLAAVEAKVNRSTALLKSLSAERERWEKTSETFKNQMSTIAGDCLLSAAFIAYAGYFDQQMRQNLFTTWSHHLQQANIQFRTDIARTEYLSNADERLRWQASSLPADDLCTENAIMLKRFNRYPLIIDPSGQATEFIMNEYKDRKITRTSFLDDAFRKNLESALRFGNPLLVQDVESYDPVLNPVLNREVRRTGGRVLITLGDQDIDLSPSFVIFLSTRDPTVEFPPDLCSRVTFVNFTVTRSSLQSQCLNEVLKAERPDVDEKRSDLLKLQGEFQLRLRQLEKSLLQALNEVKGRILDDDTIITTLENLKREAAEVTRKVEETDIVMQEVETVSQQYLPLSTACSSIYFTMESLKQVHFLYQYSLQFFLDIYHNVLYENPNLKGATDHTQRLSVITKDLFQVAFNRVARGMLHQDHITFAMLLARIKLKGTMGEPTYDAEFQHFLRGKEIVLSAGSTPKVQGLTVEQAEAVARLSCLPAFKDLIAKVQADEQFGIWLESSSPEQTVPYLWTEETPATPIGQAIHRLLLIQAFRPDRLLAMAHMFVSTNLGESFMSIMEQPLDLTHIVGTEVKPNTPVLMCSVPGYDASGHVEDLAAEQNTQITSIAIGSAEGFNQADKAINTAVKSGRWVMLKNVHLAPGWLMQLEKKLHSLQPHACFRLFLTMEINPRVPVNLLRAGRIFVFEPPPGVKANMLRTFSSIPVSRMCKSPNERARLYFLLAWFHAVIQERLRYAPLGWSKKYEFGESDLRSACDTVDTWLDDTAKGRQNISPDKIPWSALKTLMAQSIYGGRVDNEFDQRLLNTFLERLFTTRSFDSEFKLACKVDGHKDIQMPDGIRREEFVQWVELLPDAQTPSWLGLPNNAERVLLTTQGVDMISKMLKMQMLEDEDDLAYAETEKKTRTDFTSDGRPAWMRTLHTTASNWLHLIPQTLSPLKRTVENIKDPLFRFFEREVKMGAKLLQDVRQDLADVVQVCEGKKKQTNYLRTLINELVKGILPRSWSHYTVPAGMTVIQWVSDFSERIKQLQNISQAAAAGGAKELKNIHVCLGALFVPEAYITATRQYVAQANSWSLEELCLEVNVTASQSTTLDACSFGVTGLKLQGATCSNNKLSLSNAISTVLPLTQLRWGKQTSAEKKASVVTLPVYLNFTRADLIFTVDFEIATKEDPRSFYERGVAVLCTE", "test": "Inhibition of MT-stimulated ATPase activity of rat cytoplasmic dynein heavy chain motor domain"}
{"smiles": "NCCCOc1c(Br)cc(Br)cc1CC(N=O)C(=O)NCCc1c[nH]c2ccccc12", "note": "(stereo unspecified) [3-[2-(3-aminopropoxy)-3,5-dibromophenyl]-2-hydroxyimino-N-[2-(1H-indol-3-yl)ethyl]propanamide hydrochloride]", "pIC50": "< 4.30"}
{"smiles": "NCCCOc1c(Br)cc(Br)cc1CC(N=O)C(=O)NCCc1ccc(Cl)cc1", "note": "(stereo unspecified) [3-[2-(3-aminopropoxy)-3,5-dibromophenyl]-N-[2-(4-chlorophenyl)ethyl]-2-hydroxyiminopropanamide hydrochloride]", "pIC50": "< 4.30"}
{"smiles": "NCCCOc1c(Cl)cc(Cl)cc1CC(N=O)C(=O)NCCc1c[nH]c2ccccc12", "note": "(stereo unspecified) [3-[2-(3-aminopropoxy)-3,5-dichlorophenyl]-2-hydroxyimino-N-[2-(1H-indol-3-yl)ethyl]propanamide hydrochloride]", "pIC50": "< 4.30"}
{"smiles": "NCCCOc1ccc(CC(N=O)C(=O)NCCc2c[nH]c3ccccc23)cc1Br", "note": "(stereo unspecified) [3-[4-(3-aminopropoxy)-3-bromophenyl]-2-hydroxyimino-N-[2-(1H-indol-3-yl)ethyl]propanamide hydrochloride]", "pIC50": "< 4.30"}
{"smiles": "NCCCOc1ccc(CC(N=O)C(=O)NCCc2ccc(Cl)cc2)cc1Br", "note": "(stereo unspecified) [3-[4-(3-aminopropoxy)-3-bromophenyl]-N-[2-(4-chlorophenyl)ethyl]-2-hydroxyiminopropanamide hydrochloride]", "pIC50": "< 4.30"}
{"smiles": "CCCCCCCCCCCCCC(=O)NCCCOc1c(Br)cc(CC(N=O)C(=O)NCCc2cnc(N)[nH]2)cc1Br", "note": "(stereo unspecified) [Lipopurealin A]", "pIC50": "< 4.30"}
